From the NIST ThermoML archive (doi:10.1016/j.fluid.2012.08.016)
± gives the expanded uncertainty stated by the source.

Assay: xn = mol fraction of the nth substance listed
Settings: Liquid, Vibrating tube method, x2 = 0.667

C[N+](C)(C)CCO.[Cl-] [choline chloride] + OCC(O)CO
mass density [kg/m3]
Settings	298.15 K	303.15 K	308.15 K	313.15 K	318.15 K	323.15 K
100 kPa	1192.1 ± 2.6	1189.2 ± 2.6	1186.2 ± 2.6	1183.4 ± 2.6	1180.5 ± 2.6	1177.7 ± 2.6
5000 kPa	1193.6 ± 2.7	1190.7 ± 2.7	1187.7 ± 2.6	1184.9 ± 2.6	1182 ± 2.6	1179.2 ± 2.6
10000 kPa	1195 ± 2.7	1192.1 ± 2.7	1189.2 ± 2.7	1186.3 ± 2.7	1183.5 ± 2.7	1180.6 ± 2.6
15000 kPa	1196.3 ± 2.7	1193.5 ± 2.7	1190.6 ± 2.7	1187.7 ± 2.7	1184.9 ± 2.7	1182.1 ± 2.7
20000 kPa	1197.7 ± 2.7	1194.8 ± 2.7	1192 ± 2.7	1189.1 ± 2.7	1186.3 ± 2.7	1183.5 ± 2.7
25000 kPa	1199.1 ± 2.7	1196.2 ± 2.7	1193.3 ± 2.7	1190.5 ± 2.7	1187.7 ± 2.7	1184.9 ± 2.7
30000 kPa	1200.4 ± 2.8	1197.6 ± 2.8	1194.7 ± 2.7	1191.9 ± 2.7	1189.1 ± 2.7	1186.3 ± 2.7
35000 kPa	1201.7 ± 2.8	1198.9 ± 2.8	1196 ± 2.8	1193.3 ± 2.8	1190.4 ± 2.8	1187.7 ± 2.7
40000 kPa	1203 ± 2.8	1200.2 ± 2.8	1197.4 ± 2.8	1194.6 ± 2.8	1191.8 ± 2.8	1189.1 ± 2.8
45000 kPa	1204.3 ± 2.8	1201.5 ± 2.8	1198.7 ± 2.8	1195.9 ± 2.8	1193.1 ± 2.8	1190.4 ± 2.8
50000 kPa	1205.6 ± 2.9	1202.8 ± 2.8	1200 ± 2.8	1197.2 ± 2.8	1194.4 ± 2.8	1191.7 ± 2.8
